Laboratory results reported in patent US20070148643A1, “Treatment of Huntington's Disease with EPA” (priority 2002, published 2007).

How the values were obtained:
[1] = system: patients with genetically-confirmed HD; experiment: one year randomised placebo-controlled trial of ethyl-EPA in HD, total motor score (TMS) subscale of the UHDRS; type: in vivo, human
Method: 135 patients with genetically-confirmed HD were entered into a one year trial. They were randomised to receive either 2 g/day of ethyl-EPA or an identical-appearing placebo. They were evaluated at baseline, six months and 12 months on the total motor score (TMS) subscale of the Unified Huntington's Disease Rating Scale (UHDRS). The UHDRS is the standard rating scale which is used to monitor the development of HD. The TMS is the component of the UHDRS which changes most reliably, rapidly and consistently and is therefore appropriate for monitoring the outcome of clinical trials. At the end of one year, change in TMS was compared in the placebo group and the ethyl-EPA group. […] However, when patients were stratified on the basis of their CAG repeat numbers, a dramatic benefit of ethyl-EPA was uncovered. […] Placebo patients with CAG repeat numbers 45 and below deteriorated by an average of 5.3%. In contrast, the same group of patients on ethyl-EPA improved over the year by 19.3%. This difference was highly statistically significant on either analysis of covariance or on chi square testing. […] Previously the best that had been hoped for in neurodegenerative diseases like HD was a slowing of deterioration rather than any actual improvement. […] Putting it another way, the treated patients had gained at least four and a half years of useful life.

[2] = system: severely disabled patients in the final stages of Huntington's disease; settings: 2 g/day, 6 months, cited from earlier work

In the case of `CC/C=C\C/C=C\C/C=C\C/C=C\C/C=C\CCCC(=O)OCC` [ethyl-EPA, ethyl ester of eicosapentaenoate], the “proportion of patients improving on TMS” value ([1]; 2 g/day, CAG repeats 45 and below) was “great majority of patients on ethyl-EPA actually improved”, the “improvement in TMS over the year, patients with CAG repeat numbers 45 and below” value ([1]; 2 g/day, CAG repeats 45 and below, placebo deteriorated by 5.3%) was 19.3% and the “benefit versus placebo, patients with CAG repeat numbers of 45 or below” value ([1]; 2 g/day, CAG repeats 45 or below (below 45)) was “large benefit”. For the same compound, the “change in TMS versus placebo, patients with CAG repeat number of 46 or more” value ([1]; 2 g/day, CAG repeats 46 or more) was “did not show any difference at all between placebo and ethyl-EPA”, the “change in TMS versus placebo, all patients” value ([1]; 2 g/day, all patients (not stratified)) was “better outcome on ethyl-EPA than on placebo but this was not statistically significant” and the “improvement relative to the change in patients on placebo over one year” value ([1]; CAG repeats 45 and below) was “more than three and a half times more”. The “separation of EPA and placebo patients in years of disease progression after one year” value ([1]; CAG repeats 45 and below) was “more than four and a half years”, the “clinical course (abnormal movements, emotional lability and irritability, memory and cognitive function)” value ([2]; three patients on ethyl-EPA, four on placebo) was “all three patients who improved were found to be taking ethyl-EPA” and the “lateral ventricle size by MRI” value ([2]; two patients on ethyl-EPA, beginning versus end of study) was “reduction in lateral ventricle size”.
